One compound from PMC6934184, “Selective DNA-PKcs inhibition extends the therapeutic index of localized radiotherapy and chemotherapy” (The Journal of Clinical Investigation, 2019) can be followed below.

Each structure is given as a SMILES string.

This assay has as its target T1, MAP3K10 (MLK2) (Homo sapiens, UniProt Q02779).
T1 construct: purchased Thermo Fisher Scientific (Life Technologies) SelectScreen
The experiment in a line: SelectScreen LanthaScreen. As to conditions: read-out: % displacement. The format is binding. The procedure, abridged: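 Percent values come from Thermo SelectScreen profiling of NU5455, combining activity and binding assays. CSF1R was run in Z'LYTE format at Km app ATP, and CAMK1 in Adapta format with ATP listed at 10.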

T1 sequence (Q02779 whole entry): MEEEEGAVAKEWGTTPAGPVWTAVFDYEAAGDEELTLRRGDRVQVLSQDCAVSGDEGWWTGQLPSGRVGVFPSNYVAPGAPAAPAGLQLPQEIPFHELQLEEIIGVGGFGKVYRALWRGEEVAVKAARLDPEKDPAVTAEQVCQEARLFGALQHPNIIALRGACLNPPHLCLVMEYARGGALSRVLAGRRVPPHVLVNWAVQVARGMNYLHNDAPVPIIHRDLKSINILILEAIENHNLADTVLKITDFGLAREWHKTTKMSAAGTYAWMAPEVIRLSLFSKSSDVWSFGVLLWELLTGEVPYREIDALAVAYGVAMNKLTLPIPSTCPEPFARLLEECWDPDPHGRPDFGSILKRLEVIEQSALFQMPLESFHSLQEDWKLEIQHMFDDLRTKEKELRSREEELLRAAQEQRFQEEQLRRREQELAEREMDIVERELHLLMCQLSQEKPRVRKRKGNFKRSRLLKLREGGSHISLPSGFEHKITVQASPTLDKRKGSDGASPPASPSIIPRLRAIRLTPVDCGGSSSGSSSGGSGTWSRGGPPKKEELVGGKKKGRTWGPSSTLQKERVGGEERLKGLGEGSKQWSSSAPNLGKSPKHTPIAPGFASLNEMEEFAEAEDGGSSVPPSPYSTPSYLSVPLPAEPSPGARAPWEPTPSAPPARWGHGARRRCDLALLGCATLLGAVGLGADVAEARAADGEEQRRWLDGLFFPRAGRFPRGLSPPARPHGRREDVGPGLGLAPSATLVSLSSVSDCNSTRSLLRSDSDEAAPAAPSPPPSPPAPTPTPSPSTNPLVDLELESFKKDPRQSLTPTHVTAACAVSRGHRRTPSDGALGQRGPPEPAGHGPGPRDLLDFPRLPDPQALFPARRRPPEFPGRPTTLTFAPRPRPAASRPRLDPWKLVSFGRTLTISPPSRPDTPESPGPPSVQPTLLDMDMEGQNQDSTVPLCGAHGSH

With `CN(C(=O)CN1CCOCC1)c1ccc2sc3c(-c4cccc5c(=O)cc(N6CC7CCC(C6)O7)oc45)cccc3c2c1` [NU5455], the inhibition at 1 µM was 1.5%.
